# Experimental data from US20110118262A1, “Pyrrolidinyl and Piperidinyl Compounds Useful as NHE-1 Inhibitiors” (BOEHRINGER INGELHEIM INTERNATIONAL GMBH, priority 2008, published 2011).
# Target: T1, NHE-1 (Homo sapiens, UniProt P19634)
# T1 construct: endogenous in cells; host or cells: HT-29
# Test: Evaluation of NHE-1 Inhibition (pHi) in HT-29 cells
# Type: cell-based
# Settings: BCECF dye, 50% inhibition of the intracellular pH recovery, read-out: NHE1 HT29 pHi IC50
# Protocol: Evaluation of NHE-1 Inhibition (pHi)
# HT-29 cells resuspended in DMEM supplemented with 10% FBS, 1% NEAA, and 1% Penn-Strep are seeded at 10,000 cells/well in collagen coated 384 well plates which are then incubated for 24 hours at 37° C. The next day, the medium is removed and the cells are dye (Invitrogen's BCECF) loaded for 30 minutes at 37° C., washed three times with an acid loading buffer (10 mM NH4Cl, 1.8 mM CaCl2, 90 mM Choline Cl, 5 mM Glucose, 15 mM Hepes, 5 mM KCl, 1 mM MgCl2, adjusted to pH 7.5 with KOH) and further incubated at RT for 30 minutes.
# At the end of the incubation, the buffer is removed and 5 uL of fresh acid loading buffer is added to each well to prevent the dessication of the cells. The plate is placed in a Hamamatsu FDSS6000 instrument and candidate compounds are added to the cells.
# T1 sequence (P19634 whole entry): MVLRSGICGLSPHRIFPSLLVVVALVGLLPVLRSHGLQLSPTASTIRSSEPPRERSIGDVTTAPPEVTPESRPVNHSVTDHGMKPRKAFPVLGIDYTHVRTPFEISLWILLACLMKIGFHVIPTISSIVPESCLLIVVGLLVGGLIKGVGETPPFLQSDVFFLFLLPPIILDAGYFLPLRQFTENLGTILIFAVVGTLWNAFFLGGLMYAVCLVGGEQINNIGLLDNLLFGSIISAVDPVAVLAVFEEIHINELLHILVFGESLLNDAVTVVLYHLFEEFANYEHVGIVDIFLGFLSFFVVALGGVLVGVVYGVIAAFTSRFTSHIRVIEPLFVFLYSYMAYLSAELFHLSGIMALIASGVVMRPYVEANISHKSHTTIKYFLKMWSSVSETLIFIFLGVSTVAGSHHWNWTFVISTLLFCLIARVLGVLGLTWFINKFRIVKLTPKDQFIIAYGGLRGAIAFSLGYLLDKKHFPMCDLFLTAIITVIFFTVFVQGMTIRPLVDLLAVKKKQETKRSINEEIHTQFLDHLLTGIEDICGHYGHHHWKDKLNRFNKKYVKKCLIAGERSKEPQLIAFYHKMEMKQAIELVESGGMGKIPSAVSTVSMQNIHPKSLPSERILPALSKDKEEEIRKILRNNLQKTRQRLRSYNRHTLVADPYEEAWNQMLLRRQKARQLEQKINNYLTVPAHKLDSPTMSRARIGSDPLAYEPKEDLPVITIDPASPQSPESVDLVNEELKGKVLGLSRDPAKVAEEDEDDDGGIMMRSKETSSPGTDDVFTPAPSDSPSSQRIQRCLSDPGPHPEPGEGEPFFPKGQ
row,IC50 [nM],Structure (SMILES)
1,43,Cn1cnc(C[C@@H](N)C(=O)N2CCC(c3ccc(C(=O)NC(=N)N)cc3C(F)(F)F)CC2)c1 [(R)-N-(4-{1-[-2--Amino-3-(1-methyl-1H-imidazol-4-yl)-propionyl]-piperidin-4-yl}-3-trifluoromethyl-benzoyl)-guanidine]
2,24,N=C(N)NC(=O)c1ccc(C2CCN(C(=O)[C@H](N)c3ccccc3)CC2)c(C(F)(F)F)c1 [(R)-N-{4-[1-(2-Amino-2-phenyl-acetyl)-piperidin-4-yl]-3-trifluoromethyl-benzoyl}-guanidine]
3,24,N=C(N)NC(=O)c1ccc([C@H]2CCN(C(=O)c3ccc(F)cc3)C2)c(C(F)(F)F)c1 [(R)-N-{4-[1-(4-fluoro-benzoyl)-pyrrolidin-3-yl]-3-trifluoromethyl-benzoyl}-guanidine]
4,24,C[C@@](N)(Cc1ccccc1)C(=O)N1CCC(c2ccc(C(=O)NC(=N)N)cc2C(F)(F)F)CC1 [(R)-N-{4-[1-(-2--Amino-2-methyl-3-phenyl-propionyl)-piperidin-4-yl]-3-trifluoromethyl-benzoyl}-guanidine]
5,28,N=C(N)NC(=O)c1ccc([C@H]2CCN(C(=O)c3ccco3)C2)c(C(F)(F)F)c1 [(R)-N-{4-[1-(Furan-2-carbonyl)-pyrrolidin-3-yl]-3-trifluoromethyl-benzoyl}-guanidine]
6,9,N=C(N)NC(=O)c1ccc(C2CCN(C(=O)[C@@H](N)CC(=O)O)CC2)c(C(F)(F)F)c1 [(S)-3-Amino-4-[4-(4-guanidinocarbonyl-2-trifluoromethyl-phenyl)-piperidin-1-yl]-4-oxo-butyric acid]
7,92,COc1cc(C2CCN(C(=O)[C@@H](OC(C)=O)c3ccccc3)CC2)c(C(F)(F)F)cc1C(=O)NC(=N)N [(S)-Acetic acid 2--[4-(4-guanidinocarbonyl-5-methoxy-2-trifluoromethyl-phenyl)-piperidin-1-yl]-2-oxo-1-phenyl-ethyl ester]
8,49,Cn1cnc(C[C@H](N)C(=O)N2CCC(c3ccc(C(=O)NC(=N)N)cc3C(F)(F)F)CC2)c1 [(S)-N-(4-{1-[2-Amino-3-(1-methyl-1H-imidazol-4-yl)-propionyl]-piperidin-4-yl}-3-trifluoromethyl-benzoyl)-guanidine]
9,22,Cn1cncc1C[C@H](N)C(=O)N1CCC(c2ccc(C(=O)NC(=N)N)cc2C(F)(F)F)CC1 [(S)-N-(4-{1-[2-Amino-3-(3-methyl-3H-imidazol-4-yl)-propionyl]-piperidin-4-yl}-3-trifluoromethyl-benzoyl)-guanidine]
10,200,COc1cc(C2CCN(C(=O)[C@@](C)(O)c3ccccc3)CC2)c(C(F)(F)F)cc1C(=O)NC(=N)N [(S)-N-{4-[1-(2-Hydroxy-2-phenyl-propionyl)-piperidin-4-yl]-2-methoxy-5-trifluoromethyl-benzoyl}-guanidine]
11,21,N=C(N)NC(=O)c1ccc(C2CCN(C(=O)[C@@H](N)c3ccccc3)CC2)c(C(F)(F)F)c1 [(S)-N-{4-[1-(-2-Amino-2-phenyl-acetyl)-piperidin-4-yl]-3-trifluoromethyl-benzoyl}-guanidine]
12,12,C[S+]([O-])CC[C@H](N)C(=O)N1CCC(c2ccc(C(=O)NC(=N)N)cc2C(F)(F)F)CC1 (stereo partly drawn) [(S)-N-{4-[1-(-2-Amino-4-methanesulfinyl-butyryl)-piperidin-4-yl]-3-trifluoromethyl-benzoyl}-guanidine]
13,11,N=C(N)NC(=O)c1ccc(C2CCN(C(=O)[C@@H]3CCC(=O)N3)CC2)c(C(F)(F)F)c1 [(S)-N-{4-[1-(-5-Oxo-pyrrolidine-2-carbonyl)-piperidin-4-yl]-3-trifluoromethyl-benzoyl}-guanidine]
14,18,N=C(N)NC(=O)c1ccc([C@@H]2CCN(C(=O)c3ccc(F)cc3)C2)c(C(F)(F)F)c1 [(S)-N-{4-[-1-(4-fluoro-benzoyl)-pyrrolidin-3-yl]-3-trifluoromethyl-benzoyl}-guanidine]
15,17,N=C(N)NC(=O)c1ccc([C@@H]2CCN(C(=O)c3ccco3)C2)c(C(F)(F)F)c1 [(S)-N-{4-[-1-(Furan-2-carbonyl)-pyrrolidin-3--yl]-3-trifluoromethyl-benzoyl}-guanidine]
16,37,Cc1cc(C2CCN(C(=O)CN3CCCC3=O)CC2)c(C(F)(F)F)cc1C(=O)NC(=N)N [N-(2-Methyl-4-{1-[2-(2-oxo-pyrrolidin-1-yl)-acetyl]-piperidin-4-yl}-5-trifluoromethyl-benzoyl)-guanidine]
17,76,CS(=O)(=O)c1ccccc1Oc1cc(C(=O)N2CCC(c3ccc(C(=O)NC(=N)N)cc3C(F)(F)F)CC2)ccn1 [N-(4-{1-[2-(2-Methanesulfonyl-phenoxy)-pyridine-4-carbonyl]-piperidin-4-yl}-3-trifluoromethyl-benzoyl)-guanidine]
18,200,COc1ccccc1-c1cc(C(=O)N2CCC(c3ccc(C(=O)NC(=N)N)cc3C(F)(F)F)CC2)ccn1 [N-(4-{1-[2-(2-Methoxy-phenyl)-pyridine-4-carbonyl]-piperidin-4-yl}-3-trifluoromethyl-benzoyl)-guanidine]
19,135,N=C(N)NC(=O)c1ccc(C2CCN(C(=O)Cc3ccc(F)cc3)CC2)c(C(F)(F)F)c1 [N-(4-{1-[2-(4-Fluoro-phenyl)-acetyl]-piperidin-4-yl}-3-trifluoromethyl-benzoyl)-guanidine]
20,140,COc1ccc(CC(=O)N2CCC(c3ccc(C(=O)NC(=N)N)cc3C(F)(F)F)CC2)cc1 [N-(4-{1-[2-(4-Methoxy-phenyl)-acetyl]-piperidin-4-yl}-3-trifluoromethyl-benzoyl)-guanidine]
21,58,N#Cc1ccc(CC(N)C(=O)N2CCC(c3ccc(C(=O)NC(=N)N)cc3C(F)(F)F)CC2)cc1 (stereo not drawn) [N-(4-{1-[2-Amino-3-(4-cyano-phenyl)-propionyl]-piperidin-4-yl}-3-trifluoromethyl-benzoyl)-guanidine]
22,185,N=C(N)NC(=O)c1ccc(C2CCN(C(=O)c3cncc(-c4ccc(F)cc4)c3)CC2)c(C(F)(F)F)c1 [N-(4-{1-[5-(4-Fluoro-phenyl)-pyridine-3-carbonyl]-piperidin-4-yl}-3-trifluoromethyl-benzoyl)-guanidine]
23,250,COc1cccc(-c2ccc(C(=O)N3CCC(c4ccc(C(=O)NC(=N)N)cc4C(F)(F)F)CC3)cn2)c1 [N-(4-{1-[6-(3-Methoxy-phenyl)-pyridine-3-carbonyl]-piperidin-4-yl}-3-trifluoromethyl-benzoyl)-guanidine]
24,54,CS(=O)(=O)c1ccc(Oc2ccc(C(=O)N3CCC(c4ccc(C(=O)NC(=N)N)cc4C(F)(F)F)CC3)cn2)cc1 [N-(4-{1-[6-(4-Methanesulfonyl-phenoxy)-pyridine-3-carbonyl]-piperidin-4-yl}-3-trifluoromethyl-benzoyl)-guanidine]
25,14,COc1cc(C2CCN(C(C)=O)CC2)c(C(F)(F)F)cc1C(=O)NC(=N)N [N-[4-(1-Acetyl-piperidin-4-yl)-2-methoxy-5-trifluoromethyl-benzoyl]-guanidine]
26,9,CC(=O)N1CCC(c2cc(C)c(C(=O)NC(=N)N)cc2C(F)(F)F)CC1 [N-[4-(1-Acetyl-piperidin-4-yl)-2-methyl-5-trifluoromethyl-benzoyl]-guanidine]
27,18,CC(=O)N1CCC(c2ccc(C(=O)NC(=N)N)cc2S(C)(=O)=O)CC1 [N-[4-(1-Acetyl-piperidin-4-yl)-3-methanesulfonyl-benzoyl]-guanidine]
